From PMC8037182, “Solvothermal Synthesis of Multiple Dihydropyrimidinones at a Time as Inhibitors of Eg5” (Molecules, 2021)

Key:
Caco-2 cell line = test: Cytotoxicity MTS assay, Caco-2 cell line; assay type: cell-based; settings: for OD490 Mean / OD490 Well 1 / OD490 Well 2 / OD490 Well 3: Caco-2 cell line
Outline: (§1)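 MTS antiproliferation; 1000 cells/well, 24 h pre-incubation; compound 0.5–100 µM final, 24 h exposure; vehicle 0.025% DMSO; monastrol positive control; MTS 2 h, 37 °C, 5% CO2; A490; IC50 by non-linear regression of % viability vs concentration; three independent duplicate runs.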

T24 cell line = test: Cytotoxicity MTS assay, T24 cell line; assay type: cell-based; settings: for OD490 Mean / OD490 Well 1 / OD490 Well 2 / OD490 Well 3: T24 cell line, first assay;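 for OD490 Mean: blank control wells received 0.025% DMSO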;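 for OD490 Well 1: blank control wells received 0.025% DMSO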;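 for OD490 Well 2: blank control wells received 0.025% DMSO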;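 for OD490 Well 3: blank control wells received 0.025% DMSO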
Outline: as §1

SMILES: CCOC(=O)c1[nH]c(C2NC(=O)NC(C)=C2C(=O)Nc2ccc(Cl)cc2)c(C(=O)OCC)c1C (centres unmarked) [D7]
- OD490 Mean (Caco-2 cell line; 0.5μM, first assay): 0.5690
- OD490 Well 1 (Caco-2 cell line; 0.5μM, first assay): 0.5534
- OD490 Well 2 (Caco-2 cell line; 0.5μM, first assay): 0.6352
- OD490 Well 3 (Caco-2 cell line; 0.5μM, first assay): 0.5185
- OD490 Mean (Caco-2 cell line; 0.5μM, second assay): 0.6172
- OD490 Well 1 (Caco-2 cell line; 0.5μM, second assay): 0.6374
- OD490 Well 2 (Caco-2 cell line; 0.5μM, second assay): 0.6303
- OD490 Well 3 (Caco-2 cell line; 0.5μM, second assay): 0.5839
- OD490 Mean (Caco-2 cell line; 0.5μM, third assay): 0.5837
- OD490 Well 1 (Caco-2 cell line; 0.5μM, third assay): 0.6634
- OD490 Well 2 (Caco-2 cell line; 0.5μM, third assay): 0.5231
- OD490 Well 3 (Caco-2 cell line; 0.5μM, third assay): 0.5647
- OD490 Mean (Caco-2 cell line; 1μM, first assay): 0.5311
- OD490 Well 1 (Caco-2 cell line; 1μM, first assay): 0.5419
- OD490 Well 2 (Caco-2 cell line; 1μM, first assay): 0.5318
- OD490 Well 3 (Caco-2 cell line; 1μM, first assay): 0.5197
- OD490 Mean (Caco-2 cell line; 1μM, second assay): 0.5625
- OD490 Well 1 (Caco-2 cell line; 1μM, second assay): 0.5454
- OD490 Well 2 (Caco-2 cell line; 1μM, second assay): 0.5593
- OD490 Well 3 (Caco-2 cell line; 1μM, second assay): 0.5827
- OD490 Mean (Caco-2 cell line; 1μM, third assay): 0.5540
- OD490 Well 1 (Caco-2 cell line; 1μM, third assay): 0.5665
- OD490 Well 2 (Caco-2 cell line; 1μM, third assay): 0.5741
- OD490 Well 3 (Caco-2 cell line; 1μM, third assay): 0.5214
- OD490 Mean (Caco-2 cell line; 10μM, first assay): 0.5404
- OD490 Well 1 (Caco-2 cell line; 10μM, first assay): 0.5519
- OD490 Well 2 (Caco-2 cell line; 10μM, first assay): 0.5485
- OD490 Well 3 (Caco-2 cell line; 10μM, first assay): 0.5208
- OD490 Mean (Caco-2 cell line; 10μM, second assay): 0.5334
- OD490 Well 1 (Caco-2 cell line; 10μM, second assay): 0.5402
- OD490 Well 2 (Caco-2 cell line; 10μM, second assay): 0.5543
- OD490 Well 3 (Caco-2 cell line; 10μM, second assay): 0.5057
- OD490 Mean (Caco-2 cell line; 10μM, third assay): 0.5421
- OD490 Well 1 (Caco-2 cell line; 10μM, third assay): 0.5552
- OD490 Well 2 (Caco-2 cell line; 10μM, third assay): 0.5101
- OD490 Well 3 (Caco-2 cell line; 10μM, third assay): 0.5610
- OD490 Mean (Caco-2 cell line; 25μM, first assay): 0.5145
- OD490 Well 1 (Caco-2 cell line; 25μM, first assay): 0.5041
- OD490 Well 2 (Caco-2 cell line; 25μM, first assay): 0.5114
- OD490 Well 3 (Caco-2 cell line; 25μM, first assay): 0.5279
- OD490 Mean (Caco-2 cell line; 25μM, second assay): 0.5117
- OD490 Well 1 (Caco-2 cell line; 25μM, second assay): 0.548
- OD490 Well 2 (Caco-2 cell line; 25μM, second assay): 0.4698
- OD490 Well 3 (Caco-2 cell line; 25μM, second assay): 0.5172
- OD490 Mean (Caco-2 cell line; 25μM, third assay): 0.5181
- OD490 Well 1 (Caco-2 cell line; 25μM, third assay): 0.5221
- OD490 Well 2 (Caco-2 cell line; 25μM, third assay): 0.5321
- OD490 Well 3 (Caco-2 cell line; 25μM, third assay): 0.5000
- OD490 Mean (Caco-2 cell line; 50μM, first assay): 0.4389
- OD490 Well 1 (Caco-2 cell line; 50μM, first assay): 0.5283
- OD490 Well 2 (Caco-2 cell line; 50μM, first assay): 0.4168
- OD490 Well 3 (Caco-2 cell line; 50μM, first assay): 0.3716
- OD490 Mean (Caco-2 cell line; 50μM, second assay): 0.4826
- OD490 Well 1 (Caco-2 cell line; 50μM, second assay): 0.5209
- OD490 Well 2 (Caco-2 cell line; 50μM, second assay): 0.4937
- OD490 Well 3 (Caco-2 cell line; 50μM, second assay): 0.4332
- OD490 Mean (Caco-2 cell line; 50μM, third assay): 0.4437
- OD490 Well 1 (Caco-2 cell line; 50μM, third assay): 0.5112
- OD490 Well 2 (Caco-2 cell line; 50μM, third assay): 0.4213
- OD490 Well 3 (Caco-2 cell line; 50μM, third assay): 0.3987
- OD490 Mean (Caco-2 cell line; 100μM, first assay): 0.3891
- OD490 Well 1 (Caco-2 cell line; 100μM, first assay): 0.3713
- OD490 Well 2 (Caco-2 cell line; 100μM, first assay): 0.3955
- OD490 Well 3 (Caco-2 cell line; 100μM, first assay): 0.4006
- OD490 Mean (Caco-2 cell line; 100μM, second assay): 0.4527
- OD490 Well 1 (Caco-2 cell line; 100μM, second assay): 0.4755
- OD490 Well 2 (Caco-2 cell line; 100μM, second assay): 0.4428
- OD490 Well 3 (Caco-2 cell line; 100μM, second assay): 0.4398
- OD490 Mean (Caco-2 cell line; 100μM, third assay): 0.3973
- OD490 Well 1 (Caco-2 cell line; 100μM, third assay): 0.4012
- OD490 Well 2 (Caco-2 cell line; 100μM, third assay): 0.4123
- OD490 Well 3 (Caco-2 cell line; 100μM, third assay): 0.3785
- IC50 (Caco-2 cell line; MTS assay, 24 h exposure): 81.9 µM
- IC50 (T24 cell line; MTS assay, 24 h exposure): > 150 µM
- OD490 Mean (T24 cell line; 0.5μM): 1.2446
- OD490 Well 1 (T24 cell line; 0.5μM): 1.2491
- OD490 Well 2 (T24 cell line; 0.5μM): 1.2874
- OD490 Well 3 (T24 cell line; 0.5μM): 1.1973
- OD490 Mean (T24 cell line; 1μM): 1.5295
- OD490 Well 1 (T24 cell line; 1μM): 1.4588
- OD490 Well 2 (T24 cell line; 1μM): 1.7975
- OD490 Well 3 (T24 cell line; 1μM): 1.3323
- OD490 Mean (T24 cell line; 10μM): 1.4981
- OD490 Well 1 (T24 cell line; 10μM): 1.4996
- OD490 Well 2 (T24 cell line; 10μM): 1.6104
- OD490 Well 3 (T24 cell line; 10μM): 1.3842
- OD490 Mean (T24 cell line; 25μM): 1.5238
- OD490 Well 1 (T24 cell line; 25μM): 1.6186
- OD490 Well 2 (T24 cell line; 25μM): 1.5573
- OD490 Well 3 (T24 cell line; 25μM): 1.3956
- OD490 Mean (T24 cell line; 50μM): 1.3341
- OD490 Well 1 (T24 cell line; 50μM): 1.3613
- OD490 Well 2 (T24 cell line; 50μM): 1.2657
- OD490 Well 3 (T24 cell line; 50μM): 1.3754
- OD490 Mean (T24 cell line; 100μM): 1.4451
- OD490 Well 1 (T24 cell line; 100μM): 1.4704
- OD490 Well 2 (T24 cell line; 100μM): 1.5023
- OD490 Well 3 (T24 cell line; 100μM): 1.3625
